According to US8846699B2, “Quinazoline derivatives as a multiplex inhibitor and method for the preparation thereof” (Hanmi Pharm. Co., Ltd., priority 2005, dated 2014):

Columns and labels:
[1] = system: Human Umbilical Vein Endothelial Cell (HUVEC); test: Inhibitory effect on growth of human umbilical vein endothelial cell (HUVEC), MTS; format: cell-based; details: 10 ng/ml VEGF, absorbance 490 nm
Description: HUVECs (Young Science, Inc) were suspended in a culture medium, EBM-2 (Endothelial Basic Media, Cambrex) supplemented with 2% bovine serum (Cambrex) and auxiliary additives for HUVEC culture (e.g., EGF, VEGF, FGF, etc., Cambrex), inoculated into a culture flask coated with 1% gelatin, and incubated in an incubator at 37° C. under 5% CO2 and 100% humidity.
100 μl of 5% bovine serum medium containing 10 ng/ml of vascular endothelial growth factor (VEGF) and auxiliary additives, while excluding other growth factors was added to each well of a 96-well plate. […] DMSO (Dimethylsulfoxide) was used to dissolve the test compounds, and the final concentration of DMSO was less than 1%.
100 μl of the diluted cell solution was added to each well of the 96-well plate, which was incubated in an incubator for 96 hours.
Then, 20 μl of MTS ([…], Promega) solution was added to each well of the plate, and the plate was incubated in an incubator for 4 hours to induce discoloration. After 4 hours, the pellets were dissolved by way of a thorough shaking, and the absorbance at 490 nm was determined.

[2] = biological target: VEGFR2 (KDR) (Homo sapiens (Human), UniProt P35968); test: VEGFR2 (KDR) enzyme assay, fluorescence polarization; format: biochemical; details: 5 μM ATP, poly(Glu, Tyr) substrate
Description: VEGFR2 (KDR, Proquinase) enzyme assay (auto-phosphorylation assay) was carried out by using Tyrosine Kinase Assay Kit Green (Panvera). The entire assay was conducted in accordance with VEGFR PTK inhibitor cellular activity test S.O.P.
A typical kinase inhibition reaction requires a protein tyrosine kinase, a suitable buffer solution system, a peptide substrate and ATP. In the present VEGFR tyrosine kinase assay, a buffer solution system containing 20 mM HEPES (pH 7.4), 5 mM MgCl2 and 2 mM MnCl2; 50 μM Na3VO4; 200 ng/10 μl VEGFR (Proquinase); 5 μM ATP; and 10 ng/ml poly(Glu, Tyr) (4:1, Sigma) as a substrate were used.
The compounds of Test Example 1 were used as control compounds at a concentration of 0.0001 to 10 μM. After 10 min, 10 μl of poly(Glu, Tyr) as a substrate was added to each well, and 10 μl of ATP was added thereto to initiate kinase reaction. The plate was incubated at room temperature for 1 hour, and 10 μl of 100 mM EDTA was added to each well to terminate the kinase reaction.
The added EDTA was mixed for 5 min. Thereafter, 10 μl of 10× anti-phosphotyrosine antibody (Panvera), 10 μl of 10×PTK Green Tracer (Panvera) and 30 μl of FP dilution buffer (Panvera) were added thereto, and the plate was incubated in a dark room at room temperature for 30 min.

[3] = biological target: EGFR1 (HER-1) (Homo sapiens (Human), UniProt P00533); test: EGFR1 (HER-1) enzyme assay, fluorescence polarization; format: biochemical; details: 100 μM ATP, poly(Glu, Tyr) substrate
[4] = system: skin cancer cell line, A431; test: Inhibitory effect on growth of cancer cell line A431, SRB; format: cell-based; details: overexpressed EGFR1 (HER-1)
Text: (§1) A skin cancer cell line, A431 (ATCC: CRL-1555), a breast cancer cell line, SK-Br3 (ATCC: HTB-30), and a colon and rectal cancer cell line, SW-620 (ATCC: CCL-227) were used to test the degrees of cancer cell growth inhibition using a culture medium, DEME (Dulbecco's Modified Eagle's Medium, JBI) including 4.5 g/l of glucose and 1.5 g/l of sodium bicarbonate and supplemented with 10% FBS (fetal bovine serum, JBI).
(§2) The cancer cell lines stored in a liquid nitrogen tank were each quickly thawed at 37° C., and centrifuged to remove the medium. The resulting cell pellet was mixed with a culture medium, incubated in a culture flask at 37° C. under 5% CO2 for 2 to 3 days, and the medium was removed. The remaining cells were washed with DPBS (Dulbecco's Phosphate Buffered Saline, JBI) and separated from the flask by using Trypsin-EDTA solution, and the separated cells were diluted with a culture medium to a concentration of 1.0×10^6 cells/ml in case of A431 and SW-620, and 2.0×10^6 cells/ml in case of SK-Br3. 100 μl of the diluted cell solution was added to each well of a 96-well plate, which was incubated at 37° C. under 5% CO2 for 1 day.
(§3) In case that the test compound was not soluble in DMSO, a small amount of 1% HCl was added thereto and treated in a 40° C. water bath for 30 mins until complete dissolution was attained. The test compound solution was diluted with a culture medium to a final concentration of 10 μM, and then diluted 10 times serially to 10^−4. The final concentration of DMSO was less than 1%, and the control compounds of Test Example 1 were used at a concentration of 0.0001 to 10 μM.
(§4) The medium was removed from each well of the 96-well microplate, 100 μl of a diluted test compound solution was added to each well holding cultured cells, and the microplate was incubated at 37° C. under 5% CO2 for 72 hours. After removing the medium from the plate, 50 μl of 10% trichloroacetic acid was added to each well, and the plate was kept at 37° C. for 1 hour to fix the cells to the bottom of the plate. 10% trichloroacetic acid was removed from each well, the plate was dried, 100 μl of an SRB (Sulforhodamine-B, Sigma) dye solution was added thereto, and reacted for 10 mins. The SRB dye solution was prepared by dissolving SRB in 1% acetic acid to a concentration of 0.4%. After removing the dye solution, the plate was washed with water, and dried. When the dye solution was not removed by water, 1% acetic acid was used.
(§5) 150 μl of 10 mM trisma base (Sigma) was added to each well, and the absorbance at 570 nm was determined with a microplate reader (Molecular device).

[5] = system: breast cancer cell line, SK-Br3; test: Inhibitory effect on growth of cancer cell line SK-Br3, SRB; format: cell-based; details: overexpressed EGFR2 (HER-2)
Text: as §1, §2, §3, §4, §5

[6] = system: colon and rectal cancer cell line, SW-620; test: Inhibitory effect on growth of cancer cell line SW-620, SRB; format: cell-based; details: not having overexpressed EGFR and EGFR2
Text: as §1, §2, §3, §4, §5

Chain of EGFR1 (HER-1) (P00533 25-1210): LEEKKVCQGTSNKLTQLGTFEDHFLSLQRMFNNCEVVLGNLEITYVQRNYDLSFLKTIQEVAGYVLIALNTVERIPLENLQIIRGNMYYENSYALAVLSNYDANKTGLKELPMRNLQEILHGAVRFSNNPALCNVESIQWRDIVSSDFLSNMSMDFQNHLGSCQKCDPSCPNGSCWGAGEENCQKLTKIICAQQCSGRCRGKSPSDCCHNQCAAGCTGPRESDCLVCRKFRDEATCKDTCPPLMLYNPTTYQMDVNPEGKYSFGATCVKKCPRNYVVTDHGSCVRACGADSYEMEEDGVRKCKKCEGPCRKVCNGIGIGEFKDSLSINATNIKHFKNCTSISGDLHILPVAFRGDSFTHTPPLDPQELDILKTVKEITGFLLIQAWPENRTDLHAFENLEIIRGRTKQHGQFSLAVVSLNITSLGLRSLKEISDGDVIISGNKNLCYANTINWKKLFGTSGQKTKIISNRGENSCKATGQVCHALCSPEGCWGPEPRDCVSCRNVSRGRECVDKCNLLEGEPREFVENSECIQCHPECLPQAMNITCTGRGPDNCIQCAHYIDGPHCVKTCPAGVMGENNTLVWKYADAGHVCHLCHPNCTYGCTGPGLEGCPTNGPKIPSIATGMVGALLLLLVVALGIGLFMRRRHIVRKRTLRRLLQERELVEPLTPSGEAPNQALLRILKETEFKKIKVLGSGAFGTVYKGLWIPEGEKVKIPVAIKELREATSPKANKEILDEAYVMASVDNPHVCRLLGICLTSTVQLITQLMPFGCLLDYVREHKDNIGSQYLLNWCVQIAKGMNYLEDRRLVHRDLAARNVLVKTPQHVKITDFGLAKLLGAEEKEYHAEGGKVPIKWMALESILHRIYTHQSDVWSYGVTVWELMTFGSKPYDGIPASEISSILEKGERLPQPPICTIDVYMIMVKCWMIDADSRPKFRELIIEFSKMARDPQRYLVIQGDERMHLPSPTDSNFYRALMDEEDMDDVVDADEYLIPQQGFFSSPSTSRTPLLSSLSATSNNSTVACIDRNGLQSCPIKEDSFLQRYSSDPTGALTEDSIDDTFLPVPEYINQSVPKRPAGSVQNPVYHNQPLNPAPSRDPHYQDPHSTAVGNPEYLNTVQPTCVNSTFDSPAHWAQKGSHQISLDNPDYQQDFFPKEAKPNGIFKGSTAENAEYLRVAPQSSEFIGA
Chain of VEGFR2 (KDR) (P35968 20-1356): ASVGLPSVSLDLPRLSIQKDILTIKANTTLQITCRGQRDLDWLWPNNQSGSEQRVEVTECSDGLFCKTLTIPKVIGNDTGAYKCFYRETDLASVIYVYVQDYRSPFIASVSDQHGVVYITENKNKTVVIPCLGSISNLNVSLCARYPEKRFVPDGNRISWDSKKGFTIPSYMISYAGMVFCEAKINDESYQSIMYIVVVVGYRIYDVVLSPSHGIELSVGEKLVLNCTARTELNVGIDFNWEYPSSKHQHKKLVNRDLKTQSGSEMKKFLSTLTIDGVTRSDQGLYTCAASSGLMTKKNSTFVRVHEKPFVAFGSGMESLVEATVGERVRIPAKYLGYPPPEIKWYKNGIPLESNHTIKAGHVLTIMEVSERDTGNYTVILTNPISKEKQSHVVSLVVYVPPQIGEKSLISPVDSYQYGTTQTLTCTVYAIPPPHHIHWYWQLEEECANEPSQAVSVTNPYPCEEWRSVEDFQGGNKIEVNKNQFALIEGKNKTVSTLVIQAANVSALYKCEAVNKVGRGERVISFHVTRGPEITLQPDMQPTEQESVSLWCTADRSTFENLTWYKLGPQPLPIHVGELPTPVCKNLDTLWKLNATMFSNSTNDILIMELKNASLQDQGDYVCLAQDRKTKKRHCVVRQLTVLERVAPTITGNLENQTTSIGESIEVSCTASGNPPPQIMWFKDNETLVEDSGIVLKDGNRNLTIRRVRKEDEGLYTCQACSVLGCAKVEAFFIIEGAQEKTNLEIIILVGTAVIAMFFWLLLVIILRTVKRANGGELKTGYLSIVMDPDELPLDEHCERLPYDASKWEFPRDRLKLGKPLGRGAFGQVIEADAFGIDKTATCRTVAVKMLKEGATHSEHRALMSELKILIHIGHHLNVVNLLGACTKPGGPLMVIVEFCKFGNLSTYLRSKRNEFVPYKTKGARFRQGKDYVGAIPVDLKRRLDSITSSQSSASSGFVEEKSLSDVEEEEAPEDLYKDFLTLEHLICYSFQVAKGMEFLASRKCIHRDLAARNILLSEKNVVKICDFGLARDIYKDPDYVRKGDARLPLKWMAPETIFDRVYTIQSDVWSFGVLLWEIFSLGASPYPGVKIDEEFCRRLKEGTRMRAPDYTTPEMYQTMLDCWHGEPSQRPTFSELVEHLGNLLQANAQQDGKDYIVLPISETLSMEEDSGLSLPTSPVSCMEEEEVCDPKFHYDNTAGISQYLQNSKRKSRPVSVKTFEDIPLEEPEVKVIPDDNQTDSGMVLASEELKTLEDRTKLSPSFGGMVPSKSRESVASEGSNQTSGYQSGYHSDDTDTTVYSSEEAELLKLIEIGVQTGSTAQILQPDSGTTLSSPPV

Row | Molecule | IC50 ([1]; Homo sapiens, 96 h) [nM] | IC50 [2] [nM] | IC50 [3] [nM] | IC50 ([4]; Homo sapiens, A-431, 72 h) [nM] | IC50 ([5]; Homo sapiens, SK-BR-3, 72 h) [nM] | IC50 ([6]; Homo sapiens, 72 h) [nM] | IC50 ([1]; 96 hours) [nM] | IC50 ([4]; 72 hours) [nM] | IC50 ([5]; 72 hours) [nM] | IC50 ([6]; 72 hours) [nM]
1 | C=CC(=O)Nc1cc2c(Nc3ccc(Br)cc3F)ncnc2cc1OCCNC [Example 30, N-[4-(4-bromo-2-fluoro-phenylamino)-7-(2-methylamino-ethoxy)-quinazolin-6-yl]-acrylamide] | 964 | 513 | 96 | 127 | 581 | 4530 |  |  |  | 
2 | C=CC(=O)Nc1cc2c(Nc3ccc(Br)cc3F)ncnc2cc1OCCNC(=O)CCOC [Example 64, N-{4-(4-bromo-2-fluoro-phenylamino)-7-[2-(3-methoxy-propionylamino)-ethoxy]-quinazolin-6-yl}-acrylamide] | 298 | 231 | 70 | 72 | 360 | 4590 |  |  |  | 
3 | C=CC(=O)Nc1cc2c(Nc3ccc(Br)cc3F)ncnc2cc1OCCN(C)C(C)=O [Example 42, N-[7-[2-(acetyl-methyl-amino)-ethoxy]-4-(4-bromo-2-fluoro-phenylamino)-quinazolin-6-yl]-acrylamide] | 786 | 687 | 59 | 63 | 142 | 9560 |  |  |  | 
4 | C=CC(=O)Nc1cc2c(Nc3ccc(Br)cc3F)ncnc2cc1OCCNC(=O)CN1CCCCC1 [Example 101, N-{4-(4-bromo-2-fluoro-phenylamino)-7-[2-(2-piperidin-1-yl-acetylamino)-ethoxy]-quinazolin-6-yl}-acrylamide] | 964 | 857 | 7 | 8 | 76 | 2920 |  |  |  | 
5 | C=CC(=O)Nc1cc2c(Nc3ccc(Br)c(Cl)c3F)ncnc2cc1OC[C@@H](C)NC(=O)CN(C)C [Example 164, (R)—N-4-(4-bromo-3-chloro-2-fluoro-phenylamino)-7-[2-(2-dimethylamino-acetylamino)-propoxy]-quinazolin-6-yl-acrylamide] |  | 713 | 14 |  |  |  | 754 | 19 | 36 | 8970
6 | C=CNC(=O)NCCOc1cc2ncnc(Nc3ccc(Br)cc3F)c2cc1NC(=O)C=C [Example 39, N-{4-(4-bromo-2-fluoro-phenylamino)-7-[2-(3-vinyl-ureido)-ethoxy]-quinazolin-6-yl}-acrylamide] | 325 | 264 | 29 | 28 | 176 | 4520 |  |  |  | 
7 | C=CC(=O)Nc1cc2c(Nc3ccc(Br)cc3F)ncnc2cc1OCCNC(=O)CN1CCCC1 [Example 107, N-{4-(4-bromo-2-fluoro-phenylamino)-7-[2-(2-pyrrolidin-1-yl-acetylamino)-ethoxy]-quinazolin-6-yl}-acrylamide] | 289 | 200 | 45 | 48 | 119 | 3590 |  |  |  | 
8 | C=CC(=O)Nc1cc2c(Nc3ccc(Br)cc3F)ncnc2cc1OCCNC(=O)C(=O)O [Example 72, {2-[6-acryloylamino-4-(4-bromo-2-fluoro-phenylamino)-quinazolin-7-yloxy]-ethyl}-oxalamic acid] | 106 | 84 | 102 | 125 | 5410 | 10000 |  |  |  | 
9 | C=CC(=O)Nc1cc2c(Nc3ccc(Br)cc3F)ncnc2cc1OCCNC(=O)C(CO)N(C)C (stereo not shown) [Example 162, N-{4-(4-bromo-2-fluoro-phenylamino)-7-[2-(2-dimethylamino-3-hydroxy-propionylamino)-ethoxy]-quinazolin-6-yl}-acrylamide] | 882 | 797 |  | 154 | 141 | 10000 |  |  |  | 
10 | C=CC(=O)Nc1cc2c(Nc3c(F)cc(Br)cc3F)ncnc2cc1OCCNC(C)=O [Example 120, N-[7-(2-acetylamino-ethoxy)-4-(4-bromo-2,6-difluoro-phenylamino)-quinazolin-6-yl]-acrylamide] | 269 | 127 |  | 26 | 186 | 10000 |  |  |  | 
11 | C=CC(=O)Nc1cc2c(Nc3ccc(Br)cc3F)ncnc2cc1OCCNC(=O)CCN [Example 62, N-[7-[2-(3-amino-propionylamino)-ethoxy]-4-(4-bromo-2-fluoro-phenylamino)-quinazolin-6-yl]-acrylamide] | 697 | 749 |  |  | 369 | 724 |  |  |  | 
12 | C=CC(=O)Nc1cc2c(Nc3ccc(Br)cc3F)ncnc2cc1OCCNC(=O)c1ccc[nH]1 [Example 99, 1H-pyrrole-2-carboxylic acid {2-[6-acryloylamino-4-(4-bromo-2-fluoro-phenylamino)-quinazolin-7-yloxy]-ethyl}-amide] | 989 | 997 |  | 408 | 3310 | 10000 |  |  |  | 
13 | C=CC(=O)Nc1cc2c(Nc3ccc(Br)cc3F)ncnc2cc1OCCNS(C)(=O)=O [Example 33, N-[4-(4-bromo-2-fluoro-phenylamino)-7-(2-methanesulfonylamino-ethoxy)-quinazolin-6-yl]-acrylamide] | 390 | 369 |  | 34 | 167 | 10000 |  |  |  | 
14 | C=CC(=O)Nc1cc2c(Nc3ccc(Cl)cc3F)ncnc2cc1OCCNC(C)=O [Example 112, N-[7-(2-acetylamino-ethoxy)-4-(4-chloro-2-fluoro-phenylamino)-quinazolin-6-yl]-acrylamide] | 189 | 114 |  | 19 | 100 | 9560 |  |  |  | 
15 | N-{2-[6-acryloylamino-4-(4-bromo-2-fluoro-phenylamino)-quinazolin-7-yloxy]-ethyl}-malonic acid ethylester [Example 69] |  | 985 |  |  |  |  | 954 | 238 | 654 | 10000
